Measured values published in patent publication US5380715A, “Ap4 A as a hypotensive agent” (Fujirebio Inc., priority 1992, dated 1995).
Read-outs that look alike come from different tables or passages of the source.

Columns and labels:
[1] = test system: rabbit platelet aggregation; test: Inhibitory effect on rabbit platelet aggregation; type: cell-based; settings: rabbit PRP
Protocol: Fresh blood samples were collected from male Japanese white rabbits weighing 2-3 kg. Blood was anticoagulated with citric acid (1 ml 3.8% citric acid solution +9 ml blood). These samples were centrifuged at room temperature for 20 min at 200×g to obtained platelet-rich plasma (PRP). Furthermore, the supernatant liquid was centrifuged for 10 min at 1500×g to obtained platelet-poor plasma (PPP). Aggregation of platelests was measured photometrically in a Nihon Kohden hema tracer equipped with a mechanical stirring device and with a chart record. At this time, the chart recorder was calibrated as follows: the light transmission obtained with PPP was set as 100% transmission and the optical density of PRP was taken as 0% transmission. Maximal aggregation, i.e. the maximal change in optical density of the primary wave calculated in percent light transmission. From the study, it was determined that ADP, Ap3A, PAF(platelet activating factor) and collagen induced maximal aggregations at a concentration of 1×10^-5 M, 1×10^-4 M, 1.9×10^-7 M and 5 μg/kg, respectively. In the following studies, these aggregating agents were used at maximal dose. The effect of Ap4A on platelet aggregation by ADP and Ap3A were tested. In this time, Ap4A was pretreated for 1 or 10 min before the addition of aggregating agents. Also, after the platelet aggregation was induced by addition of ADP, PAF or collagen to PRP, the platelet aggregate dispersing effect of Ap4A was tested.

[2] = words, cited from earlier work
dogs = test: Gradual hypotension during anesthesia in dogs (hemodynamics, blood gas); type: in vivo, mongrel dogs; settings: dog; for Arterial Carbonate Tension PaCO2 / Arterial Oxygen Tension PaO2 / Arterial pH (pH-a) / Body Temperature BT / Cardiac Output C.O. / Central Venous Pressure CVP / Dose / Heart Rate H.R. / Hematocrit Value Hct / Mean Blood Pressure B.P. (mean) / Mean Blood Pressure B.P. (Δ%) / Mixed Venous Carbonate Tension PvCO2 / Mixed Venous Oxygen Tension PvO2 / Mixed Venous pH (pH-v) / Pulmonary Artery Pressure PAM / Pulmonary Capillary Wedge Pressure PCWP: enflurane
Protocol: Dogs were anesthetized with enflurane. […] The mean blood pressure (B.P.), heart rate (H.R.), cardiac output (C.O.), arterial oxygen tension (PaO2), mixed venos oxygen tension (PvO2), arterial carbonate tension (PaCO2), mixed venous carbonate tension (PvCO2), arterial pH (pH-a), mixed venous pH (pH-v), and base excess thereof were measured.
Mongrel dogs weighing 9 to 17 kg were anesthetized with intravenous thiopental 20 mg/kg by bolus injection, followed by 1% enflurane in 40% O2 /N2 after endotracheal intubation. […] Bilateral femoral arteries were catheterized, one for the determination of blood pressure and the other for blood sampling.
Access to the bilateral femoral veins was obtained for the administration of Ap4A, PG E1 or nitroglycerin and for the insertion of a ballon-tipped thermodilution catheter. The electrocardiogram was continuously monitored. The control values were obtained before the administration of each of the above-mentioned three agents. Each agent was administered using a syringe pump at titrated doses to produce gradual 20%, 40%, 50%, 60%, and 80% decreases in the mean arterial pressure (MAP) from the control value.
After the target blood pressure and stable hemodynamic conditions were reached, the following parameters were measured: heart rate (HR), mean pulmonary artery pressure (PAM), pulmonary capillary wedge pressure (PCWP), and central venous pressure (CVP). Cardiac output (CO) was determined by the thermodilution method. Gas analyses of arterial and mixed venous bloods were performed using a blood gas analyzer.

rats [3] = test: Gradual hypotension during anesthesia in rats; type: in vivo, male SD rats; settings: rat, enflurane
Protocol: Male SD rats (Charles River Japan Inc.) were anesthetized with intravenous thiopental 50 mg/kg as a bolus, followed by 1% enflurane in air.
A femoral artery was catheterized to monitor the blood pressure and heart rate, while a femoral vein was catheterized for the administration of each of the test drugs.
(§1) The control values were obtained before the administration of each test drug. Each test drug was then administered using a syringe in a dose-dependent manner for 15 minutes. The percentage (%) of the decrease of blood pressure was determined when stabilized. Changes in heart rate (H.R.) at the administration of each test drug were measured. Furthermore,the recovery of mean blood pressure after intravenous infusion of each test drug was also determined from the decrease in heart rate and the blood pressure at a maximum dose of each test drug.

rats [4] = test: Recovery of blood pressure after gradual hypotension in rats; type: in vivo, male SD rats; settings: rat
Protocol: FIG. 1 is a graph showing the recovery of the blood pressure of rats anesthetized with enflurane with time, when each of Ap4A ( ), PG E1 ( ) and nitroglycerin ( ) was used as a test drug to attain gradual hypotension, with the blood pressure before the administration of each test drug being set 100% for reference.
The recovery of blood pressure after gradual hypotension by use of each of Ap4A, PG E1 and nitroglycerin was also tested.
as §1
In a test similar to the above, each of Ap4A, PG E1, and nitroglycerin was administered to rats, so that about 65% fall in blood pressure, about 55% fall in blood pressure, and about 35% fall in blood pressure were stepwise attained. With respect to each agent, the recovery of blood pressure was tested.

Compound: Nc1ncnc2c1ncn2[C@@H]1O[C@H](COP(=O)(O)OP(=O)(O)O)[C@@H](O)[C@H]1O [ADP, adenosine diphosphate, reference compound]
- concentration inducing maximal platelet aggregation [1]: 10 µM

Compound: Nc1ncnc2c1ncn2[C@@H]1O[C@H](COP(=O)(O)OP(=O)(O)OP(=O)(O)OC[C@H]2O[C@@H](n3cnc4c(N)ncnc43)[C@H](O)[C@@H]2O)[C@@H](O)[C@H]1O [Ap3A, diadenosine 5', 5'"-p^1,p^4 -triphosphate, reference compound]
- concentration inducing maximal platelet aggregation [1]: 100 µM

Compound: FC(F)(F)C(Cl)Br (stereo not drawn) [Halothane]
- shortcomings / adverse effects [2]: hepatotoxicity and sthenia of brain pressure

Compound: CCCCCCCCCCCCCCCCOCC(COP(=O)([O-])OCC[N+](C)(C)C)OC(C)=O (stereo not drawn) [PAF, reference compound]
- concentration inducing maximal platelet aggregation [1]: 0.19 µM

Compound: CCCCC[C@H](O)/C=C/[C@H]1[C@H](O)CC(=O)[C@@H]1CCCCCCC(=O)O [PG E1, prostaglandin E1, reference compound]
- Arterial Carbonate Tension PaCO2 (dogs; at -20% blood pressure): 37.3 ± 1.4 mmHg
- Arterial Oxygen Tension PaO2 (dogs; at -20% blood pressure): 251.6 ± 8.3 mmHg
- Arterial pH (pH-a) (dogs; at -20% blood pressure): 7.323 ± 0.015
- Body Temperature BT (dogs; at -20% blood pressure): 37.4 ± 0.6 °C
- Cardiac Output C.O. (dogs; at -20% blood pressure): 1.47 ± 0.18 L/min
- Central Venous Pressure CVP (dogs; at -20% blood pressure): 3.27 ± 0.59 mmHg
- Dose (dogs; at -20% blood pressure): 1.66 ± 0.48 µg/kg/min
- Heart Rate H.R. (dogs; at -20% blood pressure): 167.8 ± 8.6 beats/min
- Hematocrit Value Hct (dogs; at -20% blood pressure): 41.5 ± 2.9%
- Mean Blood Pressure B.P. (mean) (dogs; at -20% blood pressure): 107.2 ± 5.3
- Mean Blood Pressure B.P. (Δ%) (dogs; at -20% blood pressure): -20.3 ± 0.4%
- Mixed Venous Carbonate Tension PvCO2 (dogs; at -20% blood pressure): 41.3 ± 1.3 mmHg
- Mixed Venous Oxygen Tension PvO2 (dogs; at -20% blood pressure): 51.0 ± 1.0 mmHg
- Mixed Venous pH (pH-v) (dogs; at -20% blood pressure): 7.303 ± 0.009
- Pulmonary Artery Pressure PAM (dogs; at -20% blood pressure): 16.0 ± 3.8 mmHg
- Pulmonary Capillary Wedge Pressure PCWP (dogs; at -20% blood pressure): 9.0 ± 3.0 mmHg
- Arterial Carbonate Tension PaCO2 (dogs; at -40% blood pressure): 36.0 ± 0.7 mmHg
- Arterial Oxygen Tension PaO2 (dogs; at -40% blood pressure): 249.3 ± 6.0 mmHg
- Arterial pH (pH-a) (dogs; at -40% blood pressure): 7.334 ± 0.012
- Body Temperature BT (dogs; at -40% blood pressure): 37.3 ± 0.6 °C
- Cardiac Output C.O. (dogs; at -40% blood pressure): 1.20 ± 0.14 L/min
- Central Venous Pressure CVP (dogs; at -40% blood pressure): 3.12 ± 0.47 mmHg
- Dose (dogs; at -40% blood pressure): 3.61 ± 1.01 µg/kg/min
- Heart Rate H.R. (dogs; at -40% blood pressure): 155.5 ± 9.1 beats/min
- Hematocrit Value Hct (dogs; at -40% blood pressure): 39.8 ± 3.3%
- Mean Blood Pressure B.P. (mean) (dogs; at -40% blood pressure): 79.8 ± 4.6
- Mean Blood Pressure B.P. (Δ%) (dogs; at -40% blood pressure): -40.7 ± 0.5%
- Mixed Venous Carbonate Tension PvCO2 (dogs; at -40% blood pressure): 39.7 ± 1.0 mmHg
- Mixed Venous Oxygen Tension PvO2 (dogs; at -40% blood pressure): 50.0 ± 1.9 mmHg
- Mixed Venous pH (pH-v) (dogs; at -40% blood pressure): 7.286 ± 0.012
- Pulmonary Artery Pressure PAM (dogs; at -40% blood pressure): 13.3 ± 3.0 mmHg
- Pulmonary Capillary Wedge Pressure PCWP (dogs; at -40% blood pressure): 6.8 ± 2.1 mmHg
- Arterial Carbonate Tension PaCO2 (dogs; at -50% blood pressure): 36.9 ± 1.0 mmHg
- Arterial Oxygen Tension PaO2 (dogs; at -50% blood pressure): 251.7 ± 9.3 mmHg
- Arterial pH (pH-a) (dogs; at -50% blood pressure): 7.303 ± 0.017
- Body Temperature BT (dogs; at -50% blood pressure): 37.2 ± 0.6 °C
- Cardiac Output C.O. (dogs; at -50% blood pressure): 1.17 ± 0.11 L/min
- Central Venous Pressure CVP (dogs; at -50% blood pressure): 3.48 ± 0.56 mmHg
- Dose (dogs; at -50% blood pressure): 4.77 ± 1.14 µg/kg/min
- Heart Rate H.R. (dogs; at -50% blood pressure): 143.3 ± 7.3 beats/min
- Hematocrit Value Hct (dogs; at -50% blood pressure): 40.0 ± 3.5%
- Mean Blood Pressure B.P. (mean) (dogs; at -50% blood pressure): 67.5 ± 3.4
- Mean Blood Pressure B.P. (Δ%) (dogs; at -50% blood pressure): -49.8 ± 0.2%
- Mixed Venous Carbonate Tension PvCO2 (dogs; at -50% blood pressure): 41.6 ± 0.6 mmHg
- Mixed Venous Oxygen Tension PvO2 (dogs; at -50% blood pressure): 53.3 ± 4.5 mmHg
- Mixed Venous pH (pH-v) (dogs; at -50% blood pressure): 7.278 ± 0.015
- Pulmonary Artery Pressure PAM (dogs; at -50% blood pressure): 12.8 ± 2.7 mmHg
- Pulmonary Capillary Wedge Pressure PCWP (dogs; at -50% blood pressure): 6.7 ± 2.0 mmHg
- Arterial Carbonate Tension PaCO2 (dogs; at -60% blood pressure): 36.8 ± 1.0 mmHg
- Arterial Oxygen Tension PaO2 (dogs; at -60% blood pressure): 253.2 ± 11.92 mmHg
- Arterial pH (pH-a) (dogs; at -60% blood pressure): 7.308 ± 0.022
- Body Temperature BT (dogs; at -60% blood pressure): 36.9 ± 0.7 °C
- Cardiac Output C.O. (dogs; at -60% blood pressure): 1.04 ± 0.10 L/min
- Central Venous Pressure CVP (dogs; at -60% blood pressure): 3.70 ± 0.76 mmHg
- Dose (dogs; at -60% blood pressure): 5.91 ± 1.49 µg/kg/min
- Heart Rate H.R. (dogs; at -60% blood pressure): 134.6 ± 7.2 beats/min
- Hematocrit Value Hct (dogs; at -60% blood pressure): 38.4 ± 4.5%
- Mean Blood Pressure B.P. (mean) (dogs; at -60% blood pressure): 56.0 ± 4.3
- Mean Blood Pressure B.P. (Δ%) (dogs; at -60% blood pressure): -58.1 ± 1.3%
- Mixed Venous Carbonate Tension PvCO2 (dogs; at -60% blood pressure): 40.6 ± 1.2 mmHg
- Mixed Venous Oxygen Tension PvO2 (dogs; at -60% blood pressure): 49.9 ± 3.1 mmHg
- Mixed Venous pH (pH-v) (dogs; at -60% blood pressure): 7.275 ± 0.016
- Pulmonary Artery Pressure PAM (dogs; at -60% blood pressure): 12.4 ± 3.4 mmHg
- Pulmonary Capillary Wedge Pressure PCWP (dogs; at -60% blood pressure): 6.2 ± 2.2 mmHg
- effect on arterial pH / venous pH (dogs; result in words): significantly decrease arterial pH or have a tendency to decrease arterial pH
- effect on carbonate tension (dogs; result in words): almost no effects on the oxygen tension and carbonate tension
- effect on heart rate (dogs; result in words): tendency to increase the heart rate when a 20% or less fall in blood pressure is attained
- effect on oxygen tension (dogs; result in words): almost no effects on the oxygen tension and carbonate tension
- Blood Pressure (Δ%) (rats [3]; infusion 0.03 μg/kg/min): 0%
- Heart Rate (Δ%) (rats [3]; infusion 0.03 μg/kg/min): 0%
- Blood Pressure (Δ%) (rats [3]; infusion 0.1 μg/kg/min): 0%
- Heart Rate (Δ%) (rats [3]; infusion 0.1 μg/kg/min): 0%
- Blood Pressure (Δ%) (rats [3]; infusion 0.3 μg/kg/min): -1.9 ± 1.9%
- Heart Rate (Δ%) (rats [3]; infusion 0.3 μg/kg/min): -0.3 ± 0.3%
- Blood Pressure (Δ%) (rats [3]; infusion 1 μg/kg/min): -9.8 ± 3.1%
- Heart Rate (Δ%) (rats [3]; infusion 1 μg/kg/min): -1.2 ± 1.4%
- Blood Pressure (Δ%) (rats [3]; infusion 3 μg/kg/min): -26.2 ± 4.0%
- Heart Rate (Δ%) (rats [3]; infusion 3 μg/kg/min): -8.0 ± 3.4%
- Blood Pressure (Δ%) (rats [3]; infusion 10 μg/kg/min): -48.0 ± 2.7%
- Heart Rate (Δ%) (rats [3]; infusion 10 μg/kg/min): -13.6 ± 2.9%
- recovered blood pressure (before administration = 100%) (rats [4]; 15 minutes): about 85%
- fall in blood pressure attained before recovery (rats [4]; stepwise): about 55%
- rapidness of the recovery of blood pressure (rats [4]; order in words): Ap4A>PG E1 >nitroglycerin

Compound: O=C1N(Cc2ccccc2)C2C[S+]3CCCC3C2N1Cc1ccccc1 (stereo not drawn) [trimethaphan, Trimethaphan]
- shortcomings / adverse effects [2]: renal insufficiency because of tubular impairment near the kidney, tachyphylaxis, tachycardia, and mydriasis after its use
- shortcomings / adverse effects ([2]; listed as Trimethaphan): cardiac contractility, cardiac output, and coronary blood flow are decreased by the ganglionic blockade thereof and histamine liberation effect is increased

Compound: collagen [reference compound]
- concentration inducing maximal platelet aggregation [1]: 5 µg/kg
